Source: publication PMC8617627, “Novel DYRK1A Inhibitor Rescues Learning and Memory Deficits in a Mouse Model of Down Syndrome” (Pharmaceuticals, 2021)
Read-outs that look alike come from different tables or passages of the source.

Legend:
Assay in all cases: Kinase profile (33P ATP filter binding)
Format in all cases: biochemical
Conditions in all cases: read-out: Remaining protein kinase activity
EF2K = target: T1, EF2K (Homo sapiens, UniProt O00418)
T1 sequence (O00418 1-725): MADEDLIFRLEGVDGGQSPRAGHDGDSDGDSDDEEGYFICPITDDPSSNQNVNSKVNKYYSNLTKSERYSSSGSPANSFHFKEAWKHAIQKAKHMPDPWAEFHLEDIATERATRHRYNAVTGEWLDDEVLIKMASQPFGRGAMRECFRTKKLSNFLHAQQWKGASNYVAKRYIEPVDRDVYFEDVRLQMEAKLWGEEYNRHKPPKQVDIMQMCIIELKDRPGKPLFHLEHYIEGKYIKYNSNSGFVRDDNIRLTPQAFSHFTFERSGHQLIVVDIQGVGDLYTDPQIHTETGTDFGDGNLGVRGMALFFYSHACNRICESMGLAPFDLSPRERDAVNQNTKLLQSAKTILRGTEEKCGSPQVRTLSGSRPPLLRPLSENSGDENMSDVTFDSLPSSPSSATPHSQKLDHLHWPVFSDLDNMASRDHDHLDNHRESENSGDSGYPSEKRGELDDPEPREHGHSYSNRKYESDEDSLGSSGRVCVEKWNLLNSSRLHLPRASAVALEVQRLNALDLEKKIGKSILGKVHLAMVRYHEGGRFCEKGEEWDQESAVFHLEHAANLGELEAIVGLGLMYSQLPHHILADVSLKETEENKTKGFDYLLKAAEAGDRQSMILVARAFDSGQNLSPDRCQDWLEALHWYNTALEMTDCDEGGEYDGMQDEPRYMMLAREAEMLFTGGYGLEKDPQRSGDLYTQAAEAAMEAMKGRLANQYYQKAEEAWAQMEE

MKK2 = MKK2 (Homo sapiens, UniProt P36507)
MAPKAP-K2 = MAPKAP-K2 (Homo sapiens, UniProt P49137)
p38d MAPK = target: T2, p38d MAPK (Homo sapiens, UniProt O15264)
T2 sequence (O15264 1-365): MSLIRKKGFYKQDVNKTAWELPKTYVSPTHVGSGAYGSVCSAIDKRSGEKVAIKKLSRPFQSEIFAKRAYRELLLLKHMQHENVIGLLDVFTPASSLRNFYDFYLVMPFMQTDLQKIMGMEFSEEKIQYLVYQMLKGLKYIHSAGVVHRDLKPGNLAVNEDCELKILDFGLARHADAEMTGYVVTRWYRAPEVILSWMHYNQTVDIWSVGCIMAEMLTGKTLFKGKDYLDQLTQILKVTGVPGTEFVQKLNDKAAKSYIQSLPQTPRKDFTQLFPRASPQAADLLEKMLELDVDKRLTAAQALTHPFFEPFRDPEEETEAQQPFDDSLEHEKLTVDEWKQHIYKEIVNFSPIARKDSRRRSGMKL

LKB1 = target: T3, LKB1 (Homo sapiens, UniProt Q15831)
T3 sequence (Q15831 1-433): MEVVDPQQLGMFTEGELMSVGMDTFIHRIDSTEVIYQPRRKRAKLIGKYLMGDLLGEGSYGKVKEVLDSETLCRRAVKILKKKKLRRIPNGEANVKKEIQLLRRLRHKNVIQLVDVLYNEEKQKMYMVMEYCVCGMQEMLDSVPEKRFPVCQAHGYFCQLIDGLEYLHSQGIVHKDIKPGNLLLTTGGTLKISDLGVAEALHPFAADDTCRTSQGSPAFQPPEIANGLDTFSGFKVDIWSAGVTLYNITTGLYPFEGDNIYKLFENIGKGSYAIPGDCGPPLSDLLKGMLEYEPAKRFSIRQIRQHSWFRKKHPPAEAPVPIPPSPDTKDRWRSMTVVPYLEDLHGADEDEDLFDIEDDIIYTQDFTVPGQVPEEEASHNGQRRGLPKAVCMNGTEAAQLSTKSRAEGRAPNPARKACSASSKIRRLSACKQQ
T3 sequence (Q7RTN6 1-431 partner): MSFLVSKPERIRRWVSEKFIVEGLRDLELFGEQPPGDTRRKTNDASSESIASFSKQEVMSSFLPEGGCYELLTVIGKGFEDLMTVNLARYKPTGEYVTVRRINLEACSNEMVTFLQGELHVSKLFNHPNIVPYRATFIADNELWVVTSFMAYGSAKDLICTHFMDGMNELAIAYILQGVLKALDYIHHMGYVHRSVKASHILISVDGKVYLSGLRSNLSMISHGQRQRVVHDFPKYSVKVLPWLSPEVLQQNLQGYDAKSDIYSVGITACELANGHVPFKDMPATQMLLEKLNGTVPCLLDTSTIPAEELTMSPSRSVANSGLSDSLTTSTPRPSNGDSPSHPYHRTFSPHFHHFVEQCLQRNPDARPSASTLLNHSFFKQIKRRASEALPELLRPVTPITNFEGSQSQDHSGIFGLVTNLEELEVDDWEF
T3 sequence (Q9Y376 1-341 partner): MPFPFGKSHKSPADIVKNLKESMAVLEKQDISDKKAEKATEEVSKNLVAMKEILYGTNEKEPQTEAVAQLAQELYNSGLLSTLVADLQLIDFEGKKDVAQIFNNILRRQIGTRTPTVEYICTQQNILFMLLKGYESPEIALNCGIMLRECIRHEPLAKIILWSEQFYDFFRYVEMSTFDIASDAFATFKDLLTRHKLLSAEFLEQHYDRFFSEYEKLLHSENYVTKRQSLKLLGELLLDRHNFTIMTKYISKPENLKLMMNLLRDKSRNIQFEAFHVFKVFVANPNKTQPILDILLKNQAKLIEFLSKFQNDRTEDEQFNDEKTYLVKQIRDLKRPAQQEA

MAP4K5 = MAP4K5 (Homo sapiens, UniProt Q9Y4K4)
Sequence of MAP4K5 (Q9Y4K4 whole entry): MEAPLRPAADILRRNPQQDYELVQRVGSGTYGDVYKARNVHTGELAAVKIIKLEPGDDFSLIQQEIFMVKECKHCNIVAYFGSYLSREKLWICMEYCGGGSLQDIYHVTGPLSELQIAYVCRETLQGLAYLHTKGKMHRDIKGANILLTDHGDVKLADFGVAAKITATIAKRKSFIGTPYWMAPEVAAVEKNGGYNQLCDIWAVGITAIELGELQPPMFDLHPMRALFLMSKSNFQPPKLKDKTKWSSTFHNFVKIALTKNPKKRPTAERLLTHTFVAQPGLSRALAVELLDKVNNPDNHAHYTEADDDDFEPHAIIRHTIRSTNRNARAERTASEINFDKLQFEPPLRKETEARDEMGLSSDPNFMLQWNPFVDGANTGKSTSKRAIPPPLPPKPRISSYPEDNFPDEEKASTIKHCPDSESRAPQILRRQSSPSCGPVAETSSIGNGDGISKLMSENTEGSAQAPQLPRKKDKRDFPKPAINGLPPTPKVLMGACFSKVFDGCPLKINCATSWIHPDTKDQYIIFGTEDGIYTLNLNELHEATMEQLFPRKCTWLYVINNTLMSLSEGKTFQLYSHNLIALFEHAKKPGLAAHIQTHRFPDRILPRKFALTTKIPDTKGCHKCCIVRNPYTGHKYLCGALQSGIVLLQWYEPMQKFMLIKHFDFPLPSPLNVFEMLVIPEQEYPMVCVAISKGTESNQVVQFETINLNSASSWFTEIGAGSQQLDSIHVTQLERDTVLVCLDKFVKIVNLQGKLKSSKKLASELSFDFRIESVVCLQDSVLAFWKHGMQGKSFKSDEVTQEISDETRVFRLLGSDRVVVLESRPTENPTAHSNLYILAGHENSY

Sequence of MAPKAP-K2 (P49137 whole entry): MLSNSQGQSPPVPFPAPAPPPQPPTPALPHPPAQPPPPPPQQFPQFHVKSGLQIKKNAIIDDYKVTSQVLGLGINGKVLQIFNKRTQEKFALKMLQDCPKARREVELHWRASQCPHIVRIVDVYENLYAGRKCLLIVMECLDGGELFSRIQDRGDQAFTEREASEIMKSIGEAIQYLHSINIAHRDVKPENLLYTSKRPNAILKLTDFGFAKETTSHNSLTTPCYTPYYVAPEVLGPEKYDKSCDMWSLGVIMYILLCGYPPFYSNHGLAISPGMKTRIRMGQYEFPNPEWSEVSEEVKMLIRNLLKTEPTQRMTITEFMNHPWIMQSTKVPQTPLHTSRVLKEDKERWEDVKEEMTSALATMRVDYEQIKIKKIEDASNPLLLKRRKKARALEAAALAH
Sequence of MKK2 (P36507 whole entry, species assumed): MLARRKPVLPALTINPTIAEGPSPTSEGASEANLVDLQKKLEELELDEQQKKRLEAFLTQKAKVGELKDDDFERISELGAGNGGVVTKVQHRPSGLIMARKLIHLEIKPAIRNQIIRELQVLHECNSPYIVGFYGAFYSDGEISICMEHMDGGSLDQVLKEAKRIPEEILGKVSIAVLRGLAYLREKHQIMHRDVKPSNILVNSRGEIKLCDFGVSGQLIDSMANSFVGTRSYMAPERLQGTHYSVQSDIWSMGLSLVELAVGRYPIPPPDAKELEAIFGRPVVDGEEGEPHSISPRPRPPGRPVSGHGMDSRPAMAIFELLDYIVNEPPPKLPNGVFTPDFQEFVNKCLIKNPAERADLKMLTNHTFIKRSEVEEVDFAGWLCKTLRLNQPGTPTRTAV

For `COc1ccc2sc(-c3cncc(NC(C)=O)c3)nc2c1` [PST-001, N-(5-(5-Methoxybenzo[d]thiazol-2-yl)pyridin-3-yl)acetamide], the remaining activity at 1 µM (EF2K) was 113%, the remaining activity at 100 µM (EF2K) was 106% and the remaining activity at 1 µM (MKK2) was 75%. For the same compound, the remaining activity at 100 µM (MKK2) was 100%, the remaining activity at 1 µM (MAPKAP-K2) was 109% and the remaining activity at 100 µM (MAPKAP-K2) was 111%. It also gave a remaining activity at 1 µM (p38d MAPK) of 115%, a remaining activity at 100 µM (p38d MAPK) of 112% and a remaining activity at 1 µM (LKB1) of 123%. It also gave a remaining activity at 100 µM (LKB1) of 150%, a remaining activity at 1 µM (MAP4K5) of 82% and a remaining activity at 100 µM (MAP4K5) of 92%.
`COc1ccc2sc(-c3cncc(N)c3)nc2c1` [compound 1, 5-(5-Methoxybenzo[d]thiazol-2-yl)pyridin-3-amine] showed a remaining activity at 1 µM (EF2K; EF2K, 1 μM) of 112%, a remaining activity at 100 µM (EF2K; EF2K, 100 μM) of 84% and a remaining activity at 1 µM (MKK2; MKK2, 1 μM) of 81%. The remaining activity at 100 µM (MKK2; MKK2, 100 μM) was 62%, the remaining activity at 1 µM (MAPKAP-K2; MAPKAP-K2, 1 μM) was 122% and the remaining activity at 100 µM (MAPKAP-K2; MAPKAP-K2, 100 μM) was 66%. For the same compound, the remaining activity at 1 µM (p38d MAPK; p38d MAPK, 1 μM) was 116%, the remaining activity at 100 µM (p38d MAPK; p38d MAPK, 100 μM) was 95% and the remaining activity at 1 µM (LKB1; LKB1, 1 μM) was 109%. It also gave a remaining activity at 100 µM (LKB1; LKB1, 100 μM) of 161%, a remaining activity at 1 µM (MAP4K5; MAP4K5, 1 μM) of 106% and a remaining activity at 100 µM (MAP4K5; MAP4K5, 100 μM) of 61%.
